In paper PMC10895676, “Antiviral Activity of Lipophilic Nucleoside Tetraphosphate Compounds” (Journal of Medicinal Chemistry, 2024):

Experiments:
[1] = Cytotoxicity, inhibition of CEM cell proliferation; type: cell-based; conditions: human, CEM cells (CD4+ T-cells), read-out: toxicity CC50
[2] = Cytotoxicity, inhibition of CEM/TK– cell proliferation; type: cell-based; conditions: human, CEM/TK– cells (CD4+ T-cells), read-out: toxicity CC50

CCCCCCCCCCCCCCCCCCOP(=O)(OCCCC)OP(=O)(O)OP(=O)(O)OP(=O)(O)OC[C@@H]1C=C[C@H](n2cc(C)c(=O)[nH]c2=O)O1 (stereo partly shown) [4d, δ-(Alkyl-C4; alkyl-C18)-d4T4P]
CC50 [1]: 43.9 µM | CC50 [2]: 46.8 µM

CCCCCCCCCCCCCCCCCCP(=O)(OCCCC)OP(=O)(O)OP(=O)(O)OP(=O)(O)OC[C@@H]1C=C[C@H](n2cc(C)c(=O)[nH]c2=O)O1 (stereo partly shown) [5a, δ-(Alkyl-C4)-δ-C-(alkyl-C18)-d4T4P]
CC50 [1]: 44.6 µM | CC50 [2]: 49.8 µM

CCCCCCCCCCCCCCCCCCP(=O)(O)OP(=O)(O)OP(=O)(O)OP(=O)(O)OC[C@@H]1C=C[C@H](n2cc(C)c(=O)[nH]c2=O)O1 [compound 24, δ-C-(Alkyl-C18)-d4T4P]
CC50 [1]: 23.2 µM | CC50 [2]: 40.1 µM

CCCCCCCCCCCCCCCCCCOP(=O)(O)OP(=O)(O)OP(=O)(O)OP(=O)(O)OC[C@@H]1C=C[C@H](n2cc(C)c(=O)[nH]c2=O)O1 [compound 20, δ-(Alkyl-C18)-d4T4P]
CC50 [1]: > 100 µM | CC50 [2]: > 100 µM

Cc1cn([C@H]2C=C[C@@H](COP(=O)(O)OP(=O)(O)OP(=O)(O)OP(=O)(O)O)O2)c(=O)[nH]c1=O [d4T4P, 2′,3′-didehydro-2′,3′-dideoxythymidine-5′-tetraphosphate]
CC50 [1]: > 100 µM | CC50 [2]: > 100 µM
